These are literature values, as cited in US20260108532A1, “COMPOSITION FOR PREVENTING HEART DISEASES CAUSED BY PULMONARY HYPERTENSION AND TREATING HEART, AND FUNCTIONAL FORMULATION COMPRISING SAME” (CARESIDE CO., LTD., priority 2023, published 2026).

Data set [1] deals with dogs with subclinical (asymptomatic) CMVI. The following applies: at 35 days of administration, compared to placebo administered group.
The conditions of data set [2]: dogs; long-term administration.
For data set [3] the following is noted: potassium-sparing diuretic such as spironolactone.
Data set [4] deals with dogs with subclinical myxomatous mitral valve disease (MMVD). Particulars: compared with placebo-administered group.

For `COc1ccc(-c2nc3ccc(C4=NNC(=O)CC4C)cc3[nH]2)cc1` (stereo not shown) [pimobendan, Pimobendan], the “LVIDd and LA/Ao on imaging diagnosis” value in data set [1] is listed as “decreased”.

For the compound `Cc1cccc(Nc2ccncc2S(=O)(=O)NC(=O)NC(C)C)c1` [torsemide, Torsemide], in data set [2], the ceiling effect entry is “almost no ceiling effect”.

In the case of `CC(=O)S[C@@H]1CC2=CC(=O)CC[C@]2(C)[C@H]2CC[C@@]3(C)[C@@H](CC[C@@]34CCC(=O)O4)[C@H]12` [spironolactone, Spironolactone], in data set [3], the “diuretic effect as share of the efficacy of the loop diuretic” value is about 10%. In addition, the “increase in heart size and cardiac biomarker concentration on cardiac ultrasound” value in data set [4] is reported as “much smaller”.
